In patent US20220298186A1, “BIARYL DIALKYL PHOSPHINE OXIDE FPR2 AGONISTS” (BRISTOL-MYERS SQUIBB COMPANY, priority 2019, published 2022):

Tests used:
human FPR2 receptors = molecular target: T1, human FPR2 receptors (Homo sapiens, UniProt P25090); experiment: FPR2 cyclic adenosine monophosphate (cAMP) assay; assay type: cell-based; details: CHO cells overexpressing human FPR2; forskolin 5 μM, IBMX 200 μM; 30 min at rt; inhibition of cAMP production (HTRF); read-out: hFPR2 cAMP2 EC50
T1 sequence (P25090 1-351): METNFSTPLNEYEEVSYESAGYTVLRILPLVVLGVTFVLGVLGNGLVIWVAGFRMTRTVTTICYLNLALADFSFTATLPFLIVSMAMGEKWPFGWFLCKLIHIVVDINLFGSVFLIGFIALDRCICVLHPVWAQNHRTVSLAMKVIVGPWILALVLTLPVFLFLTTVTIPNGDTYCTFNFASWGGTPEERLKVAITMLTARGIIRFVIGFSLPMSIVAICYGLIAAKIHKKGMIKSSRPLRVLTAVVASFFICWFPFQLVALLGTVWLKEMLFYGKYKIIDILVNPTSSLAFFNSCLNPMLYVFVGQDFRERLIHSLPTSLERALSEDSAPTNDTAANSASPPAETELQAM
Excerpt: (§1) N-formyl peptide receptors (FPRs) are a family of chemo attractant receptors that facilitate leukocyte response during inflammation. FPRs belong to the seven-transmembrane G protein-coupled receptor superfamily and are linked to inhibitory G-proteins (Gi). Three family members (FPR1, FPR2 and FPR3) have been identified in humans and are predominantly found in myeloid cells with varied distribution and have also been reported in multiple organs and tissues. After agonist binding, the FPRs activate a multitude of physiological pathways, such as intra cellular signaling transduction, Ca^2+ mobilization and transcription. The family interacts with a diverse set of ligands that includes proteins, polypeptides and fatty acid metabolites which activate both pro-inflammatory and pro-resolution downstream responses. FPR2 and FPR1 Cyclic Adenosine Monophosphate (cAMP) Assays were used to measure the activity of the compounds in this patent.
(§2) FPR2 and FPR1 Cyclic Adenosine Monophosphate (cAMP) Assays. A mixture of forskolin (5 μM final for FPR2 or 10 μM final for FPR1) and IBMX (200 μM final) were added to 384-well Proxiplates (Perkin-Elmer) pre-dotted with test compounds in DMSO (1% final) at final concentrations in the range of 0.020 nM to 100 μM. Chinese Hamster Ovary cells (CHO) overexpressing human FPR1 or human FPR2 receptors were cultured in F-12 (Ham's) medium supplemented with 10% qualified FBS, 250 μg/mL zeocin and 300 μg/mL hygromycin (Life Technologies). Reactions were initiated by adding 2,000 human FPR2 cells per well or 4,000 human FPR1 cells per well in Dulbecco's PBS (with calcium and magnesium) (Life Technologies) supplemented with 0.1% BSA (Perkin-Elmer). The reaction mixtures were incubated for 30 min at rt. The level of intracellular cAMP was determined using the HTRF HiRange cAMP assay reagent kit (Cisbio) according to manufacturer's instruction. Solutions of cryptate conjugated anti-cAMP and d2 flurorophore-labelled cAMP were made in a supplied lysis buffer separately. Upon completion of the reaction, the cells were lysed with equal volume of the d2-cAMP solution and anti-cAMP solution. After a 1-h rt incubation, time-resolved fluorescence intensity was measured using the Envision (Perkin-Elmer) at 400 nm excitation and dual emission at 590 nm and 665 nm. A calibration curve was constructed with an external cAMP standard at concentrations ranging from 1 μM to 0.1 μM by plotting the fluorescent intensity ratio from 665 nm emission to the intensity from the 590 nm emission against cAMP concentrations. The potency and activity of a compound to inhibit cAMP production was then determined by fitting to a 4-parametric logistic equation from a plot of cAMP level versus compound concentrations.
(§3) The examples disclosed below were tested in the FPR2 and FPR1 cAMP assay described above and found having FPR2 and/or FPR1 agonist activity. Table 1 below lists EC50 values in the FPR2 and FPR1 cAMP assays measured for the following examples.

human FPR1 receptors = molecular target: T2, human FPR1 receptors (Homo sapiens, UniProt P21462); experiment: FPR1 cyclic adenosine monophosphate (cAMP) assay; assay type: cell-based; details: CHO cells overexpressing human FPR1; forskolin 10 μM, IBMX 200 μM; 30 min at rt; inhibition of cAMP production (HTRF); read-out: hFPR1 cAMP EC50
T2 sequence (P21462 1-350): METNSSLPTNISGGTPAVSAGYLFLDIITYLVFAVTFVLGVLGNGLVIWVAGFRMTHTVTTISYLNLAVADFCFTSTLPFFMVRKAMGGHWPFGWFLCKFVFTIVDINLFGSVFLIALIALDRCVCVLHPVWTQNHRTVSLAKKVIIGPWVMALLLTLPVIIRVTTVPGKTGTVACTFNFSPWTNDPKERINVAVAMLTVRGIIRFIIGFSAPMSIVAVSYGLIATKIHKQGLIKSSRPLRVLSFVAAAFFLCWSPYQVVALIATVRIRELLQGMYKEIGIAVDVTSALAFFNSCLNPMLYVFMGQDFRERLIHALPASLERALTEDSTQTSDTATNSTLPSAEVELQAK
Excerpt: as §1, §2, §3

EC50 (human FPR2 receptors) [nM]	EC50 (human FPR1 receptors) [nM]	SMILES
0.86	430	COc1ccc(NC(=O)N[C@@H]2CCCN(c3ccc(-c4ccccc4P(C)(C)=O)c(F)c3F)C2=O)c(F)c1 [Example 6, 3-[(3R)-1-[2′-(Dimethylphosphoryl)-2,3-difluoro-[1,1′-biphenyl]-4-yl]-2-oxopiperidin-3-yl]-1-(2-fluoro-4-methoxyphenyl)urea]
22.1	> 10000	CP(C)(=O)c1ccccc1-c1cc(F)c(N2CCC[C@@H](NC(=O)Nc3ccc(OC(F)(F)F)cc3)C2=O)c(F)c1 [Example 21, 3-[(3R)-1-[2′-(Dimethylphosphoryl)-3,5-difluoro-[1,1′-biphenyl]-4-yl]-2-oxopiperidin-3-yl]-1-[4-(trifluoromethoxy)phenyl] urea]
0.12	110	CP(C)(=O)c1ccccc1-c1ccc(N2CCC[C@@H](NC(=O)Nc3ccc(Cl)cc3F)C2=O)c(F)c1F [Example 1, (R)-1-(4-Chloro-2-fluorophenyl)-3-(1-(2′-(dimethylphosphoryl)-2,3-difluoro-[1,1′-biphenyl]-4-yl)-2-oxopiperidin-3-yl)urea]
0.17	420	CCP(=O)(CC)c1ccccc1-c1cc(F)c(N2CCC[C@@H](NC(=O)Nc3ccc(Cl)cc3F)C2=O)c(F)c1 [Example 3, 1-(4-Chloro-2-fluorophenyl)-3-[(3R)-1-[2′-(diethylphosphoryl)-3,5-difluoro-[1,1′-biphenyl]-4-yl]-2-oxopiperidin-3-yl]urea]
11.6	> 10000	CP(C)(=O)c1ccccc1-c1ccc(N2CCC[C@@H](NC(=O)Nc3ncc(C(F)(F)F)cc3F)C2=O)c(F)c1F [Example 18]
0.18	300	CP(C)(=O)c1ccccc1-c1ccc(N2CCC[C@@H](NC(=O)Nc3ccc(C(F)(F)F)cc3F)C2=O)c(F)c1F [Example 2, 3-[(3R)-1-[2′-(Dimethylphosphoryl)-2,3-difluoro-[1,1′-biphenyl]-4-yl]-2-oxopiperidin-3-yl]-1-[2-fluoro-4-(trifluoromethyl)phenyl] urea]
2.6	1700	CP(C)(=O)c1ccccc1-c1cc(F)c(N2CCC[C@@H](NC(=O)Nc3ccc(C(F)(F)F)cc3F)C2=O)c(F)c1 [Example 11, 3-[(3R)-1-[2′-(Dimethylphosphoryl)-3,5-difluoro-[1,1′-biphenyl]-4-yl]-2-oxopiperidin-3-yl]-1-[2-fluoro-4-(trifluoromethyl)phenyl] urea]
1.4	370	CP(C)(=O)c1ccccc1-c1ccc(N2CCC[C@@H](NC(=O)Nc3ccc(OC(F)(F)F)cc3)C2=O)c(F)c1F [Example 10, 3-[(3R)-1-[2′-(Dimethylphosphoryl)-2,3-difluoro-[1,1′-biphenyl]-4-yl]-2-oxopiperidin-3-yl]-1-[4-(trifluoromethoxy)phenyl] urea]
8.3	7000	CCP(=O)(CC)c1ccccc1-c1cc(F)c(N2CCC[C@@H](NC(=O)Nc3ncc(Cl)cc3F)C2=O)c(F)c1 [Example 15, 1-(5-Chloro-3-fluoropyridin-2-yl)-3-[(3R)-1-[2′-(diethylphosphoryl)-3,5-difluoro-[1,1′-biphenyl]-4-yl]-2-oxopiperidin-3-yl]urea]
0.63	7.1	CP(C)(=O)c1ccccc1-c1ccc(N2CCC[C@@H](NC(=O)Nc3ncc(Cl)cc3F)C2=O)c(C2CC2)c1 [Example 4, 1-(5-Chloro-3-fluoropyridin-2-yl)-3-[(3R)-1-[3-cyclopropyl-2′-(dimethylphosphoryl)-[1,1′-biphenyl]-4-yl]-2-oxopiperidin-3-yl]urea]
16.7	140	CP(C)(=O)c1ccccc1-c1ccc(N2CCC[C@@H](NC(=O)Nc3ccc(Cl)cc3F)C2=O)cn1 [Example 19, 1-(4-Chloro-2-fluorophenyl)-3-[(3R)-1-{6-[2-(dimethylphosphoryl)phenyl]pyridin-3-yl}-2-oxopiperidin-3-yl]urea]
2.7	1300	CP(C)(=O)c1ccccc1-c1ccc(N2CCC[C@@H](NC(=O)Nc3ccc(C(F)(F)F)cn3)C2=O)c(F)c1F [Example 12, 3-[(3R)-1-[2′-(Dimethylphosphoryl)-2,3-difluoro-[1,1′-biphenyl]-4-yl]-2-oxopiperidin-3-yl]-1-[5-(trifluoromethyl)pyridin-2-yl]urea]
0.79	2600	CP(C)(=O)c1ccccc1-c1cc(F)c(N2CCC[C@@H](NC(=O)Nc3ccc(Cl)cc3F)C2=O)c(F)c1 [Example 7, 1-(4-Chloro-2-fluorophenyl)-3-[(3R)-1-[2′-(dimethylphosphoryl)-3,5-difluoro-[1,1′-biphenyl]-4-yl]-2-oxopiperidin-3-yl]urea]
43.2	> 10000	CP(C)(=O)c1ccccc1-c1cc(F)c(N2CCC[C@@H](NC(=O)Nc3ncc(Cl)cc3F)C2=O)c(F)c1 [Example 20, 1-(5-Chloro-3-fluoropyridin-2-yl)-3-[(3R)-1-[2′-(dimethylphosphoryl)-3,5-difluoro-[1,1′-biphenyl]-4-yl]-2-oxopiperidin-3-yl]urea]
2.2	1400	CP(C)(=O)c1ccccc1-c1ccc(N2CCC[C@@H](NC(=O)Nc3ncc(Cl)cc3F)C2=O)c(F)c1F [Example 9, 1-(5-Chloro-3-fluoropyridin-2-yl)-3-[(3R)-1-[2′-(dimethylphosphoryl)-2,3-difluoro-[1,1′-biphenyl]-4-yl]-2-oxopiperidin-3-yl]urea]
8.4	1800	CP(C)(=O)c1ccccc1-c1ccc(N2CCC[C@@H](NC(=O)Nc3ccc(OC(F)(F)F)cc3F)C2=O)c(F)c1F [Example 16, 3-[(3R)-1-[2′-(Dimethylphosphoryl)-2,3-difluoro-[1,1′-biphenyl]-4-yl]-2-oxopiperidin-3-yl]-1-[2-fluoro-4-(trifluoromethoxy)phenyl] urea]
6	1500	CCP(=O)(CC)c1ccccc1-c1ccc(N2CCC[C@@H](NC(=O)Nc3ncc(Cl)cc3F)C2=O)c(F)c1F [Example 14, 1-(5-Chloro-3-fluoropyridin-2-yl)-3-[(3R)-1-[2′-(diethylphosphoryl)-2,3-difluoro-[1,1′-biphenyl]-4-yl]-2-oxopiperidin-3-yl]urea]
5.6	2400	COc1ccc(NC(=O)N[C@@H]2CCCN(c3c(F)cc(-c4ccccc4P(C)(C)=O)cc3F)C2=O)cc1 [Example 13, 3-[(3R)-1-[2′-(Dimethylphosphoryl)-3,5-difluoro-[1,1′-biphenyl]-4-yl]-2-oxopiperidin-3-yl]-1-(4-methoxyphenyl)urea]
1.5	1100	CP(C)(=O)c1ccccc1-c1ccc(N2CCC[C@@H](NC(=O)Nc3cnc(Cl)cn3)C2=O)c(F)c1F [Example 8, 1-(5-Chloropyrazin-2-yl)-3-[(3R)-1-[2′-(dimethylphosphoryl)-2,3-difluoro-[1,1′-biphenyl]-4-yl]-2-oxopiperidin-3-yl]urea]
